Reference: ChEMBL document CHEMBL5647692, “The novel dual PI3K/mTOR inhibitor NVP-BGT226 displays cytotoxic activity in both normoxic and hypoxic hepatocarcinoma cells” (Oncotarget, 2015)
The source made the active and inactive calls. No cut-off for these calls is given here.

How the values were obtained:
Hep 3B2 [1] = assay: Cytotoxicity against human Hep3B cells assessed as reduction in cell viability at 0.5 uM incubated for 24 hrs in presence of 3-Methyladenine by MTT assay; format: functional, cell-based
[2] = Inhibition of PI3K/Akt/mTOR signaling pathway in human SNU-475 cells assessed as reduction in phosphorylation of Akt incubated for 1 hr under normoxia condition by Western blotting analysis; format: cell-based; conditions: dose 0.25-1 µM
SNU-475 [3] = assay: Cytotoxicity against human SNU-475 cells assessed as reduction in cell viability incubated for 24 hrs under normoxia condition by MTT assay; format: functional, cell-based
SNU-449 [4] = assay: Induction of apoptosis in human SNU-449 cells assessed as late apoptotic cells at 1.5 uM incubated for 24 hrs by Annexin-V/7-AAD staining based muse cell analyzer method (reference value: 5.03 %); format: functional
Mahlavu [5] = assay: Cytotoxicity against human Mahlavu cells assessed as reduction in cell viability incubated for 24 hrs under hypoxia condition by MTT assay; format: functional, cell-based
HepG2 [6] = assay: Cytotoxicity against human HepG2 cells assessed as reduction in cell viability at 0.5 uM incubated for 24 hrs in presence of 3-Methyladenine by MTT assay; format: functional, cell-based
SNU-475 [7] = assay: Induction of apoptosis in human SNU-475 cells assessed as cleaved Caspase 7 level at 0.5 uM incubated for 24 hrs by Western blotting analysis; format: functional, cell-based
[8] = Inhibition of PI3K/Akt/mTOR signaling pathway in human Mahlavu cells assessed as reduction in S6 phosphorylation at 1 to 10 nM incubated for 1 hr under normoxia condition by Western blotting analysis; format: cell-based; conditions: dose 1-10 nM
[9] = Inhibition of PI3K/Akt/mTOR signaling pathway in human Mahlavu cells assessed as reduction in phosphorylation of Akt at 1 to 10 nM incubated for 1 hr under normoxia condition by Western blotting analysis; format: cell-based; conditions: dose 1-10 nM
[10] = Inhibition of PI3K/Akt/mTOR signaling pathway in human Hep3B cells assessed as reduction in phosphorylation of Akt incubated for 1 hr under normoxia condition by Western blotting analysis; format: cell-based; conditions: dose 0.25-1 µM
[11] = Inhibition of PI3K/Akt/mTOR signaling pathway in human HepG2 cells assessed as reduction in phosphorylation of GSK3 alpha/beta incubated for 1 hr under normoxia condition by Western blotting analysis; format: cell-based; conditions: dose 0.25-1 µM
Mahlavu [12] = assay: Induction of apoptosis in human Mahlavu cells incubated for 24 hrs by Annexin-V/7-AAD staining based muse cell analyzer method; format: functional; conditions: dose 0.01-0.5 µM
Mahlavu [13] = assay: Induction of apoptosis in human Mahlavu cells assessed as necrotic cells at 0.66 uM incubated for 24 hrs by Annexin-V/7-AAD staining based muse cell analyzer method (reference value: 0.67 %); format: functional
Mahlavu [14] = assay: Induction of apoptosis in human Mahlavu cells assessed as chromatin condensation under normoxia condition at 0.1 to 0.5 uM incubated for 24 hrs by DAPI staining based fluorescence microscope analysis; format: functional, cell-based; conditions: dose 0.1-0.5 µM
[15] = Inhibition of PI3K/Akt/mTOR signaling pathway in human Mahlavu cells assessed as reduction in phosphorylation of mTORC1/2 incubated for 1 hr under normoxia condition by Western blotting analysis; format: cell-based; conditions: dose 0.25-1 µM
Hep 3B2 [16] = assay: Induction of apoptosis in human Hep3B cells incubated for 24 hrs by Annexin-V/7-AAD staining based muse cell analyzer method; format: functional; conditions: dose 0.01-0.5 µM
Hep 3B2 [17] = assay: Cytotoxicity against human Hep3B cells assessed as reduction in cell viability incubated for 24 hrs under hypoxia condition by MTT assay; format: functional, cell-based
SNU-475 [18] = assay: Induction of autophagy in human SNU-475 cells assessed as decreased expression of SQSTM1/p62 level incubated for 24 hrs under hypoxia condition by Western blot analysis; format: functional, cell-based; conditions: dose 0.1-0.5 µM
SNU-449 [19] = assay: Cytotoxicity against human SNU-449 cells assessed as reduction in cell viability incubated for 24 hrs under hypoxia condition by MTT assay; format: functional, cell-based
SNU-449 [20] = assay: Cytotoxicity against human SNU-449 cells assessed as reduction in cell viability at 0.5 to 5 uM incubated for 24 hrs by MTT assay; format: functional, cell-based; conditions: dose 0.5-5 µM
HepG2 [21] = assay: Cytotoxicity against human HepG2 cells assessed as reduction in cell viability incubated for 48 hrs by MTT assay; format: functional, cell-based; conditions: HepG2, 48 h
Mahlavu [22] = assay: Induction of cell cycle arrest in human Mahlavu cells assessed as decrease in accumulation of cells in S phase incubated at 0.01 to 0.1 uM for 24 hrs by propidium iodide staining based muse cell analysis; format: functional; conditions: dose 0.01-0.1 µM
Hep 3B2 [23] = assay: Cytotoxicity against human Hep3B cells assessed as reduction in cell viability at 0.5 to 5 uM incubated for 24 hrs by MTT assay; format: functional, cell-based; conditions: dose 0.5-5 µM
SNU-475 [24] = assay: Cytotoxicity against human SNU-475 cells assessed as reduction in cell viability at 0.5 to 5 uM incubated for 24 hrs by MTT assay; format: functional, cell-based; conditions: dose 0.5-5 µM
[25] = Inhibition of PI3K/Akt/mTOR signaling pathway in human Hep3B cells assessed as reduction in phosphorylation of GSK3 alpha/beta incubated for 1 hr under normoxia condition by Western blotting analysis; format: cell-based; conditions: dose 0.25-1 µM
Mahlavu [26] = assay: Cytotoxicity against human Mahlavu cells assessed as reduction in cell viability at 0.5 uM incubated for 24 hrs in presence of 3-Methyladenine by MTT assay; format: functional, cell-based
[27] = Inhibition of PI3K/Akt/mTOR signaling pathway in human Mahlavu cells assessed as reduction in phosphorylation of GSK3 alpha/beta incubated for 1 hr under normoxia condition by Western blotting analysis; format: cell-based; conditions: dose 0.25-1 µM
[28] = Inhibition of PI3K/Akt/mTOR signaling pathway in human Mahlavu cells assessed as reduction in phosphorylation of mTORC1 substrate S6 incubated for 1 hr under normoxia condition by Western blotting analysis; format: cell-based; conditions: dose 0.25-1 µM
[29] = Inhibition of PI3K/Akt/mTOR signaling pathway in human HepG2 cells assessed as reduction in phosphorylation of mTORC1/2 incubated for 1 hr under normoxia condition by Western blotting analysis; format: cell-based; conditions: dose 0.25-1 µM
Hep 3B2 [30] = assay: Induction of apoptosis in human Hep3B cells assessed as cleaved PARP level at 0.5 uM incubated for 24 hrs by Western blotting analysis; format: functional, cell-based
[31] = Inhibition of PI3K/Akt/mTOR signaling pathway in human SNU-475 cells assessed as reduction in phosphorylation of mTORC1/2 incubated for 1 hr under normoxia condition by Western blotting analysis; format: cell-based; conditions: dose 0.25-1 µM
[32] = Inhibition of PI3K/Akt/mTOR signaling pathway in human SNU-449 cells assessed as reduction in phosphorylation of Akt at 0.001 to 0.01 uM incubated for 1 hr under hypoxia condition by Western blotting analysis; format: cell-based; conditions: dose 0.001-0.01 µM
Mahlavu [33] = assay: Induction of apoptosis in human Mahlavu cells assessed as early apoptotic cells at IC50 incubated for 24 hrs in presence of Z-VAD-fmk by Annexin-V/7-AAD staining based muse cell analyzer method (reference value: 6.57 %); format: functional
[34] = Inhibition of PI3K/Akt/mTOR signaling pathway in human SNU-449 cells assessed as reduction in phosphorylation of mTORC1 substrate S6 incubated for 1 hr under normoxia condition by Western blotting analysis; format: cell-based; conditions: dose 0.25-1 µM
Mahlavu [35] = assay: Cytotoxicity against human Mahlavu cells assessed as reduction in cell viability incubated for 48 hrs by MTT assay; format: functional, cell-based
Hep 3B2 [36] = assay: Cytotoxicity against human Hep3B cells assessed as reduction in cell viability incubated for 24 hrs under normoxia condition by MTT assay; format: functional, cell-based

COc1ccc(-c2ccc3ncc4c(c3c2)n(-c2ccc(N3CCNCC3)c(C(F)(F)F)c2)c(=O)n4C)cn1 [BGT-226 FREE BASE]
Activity (Hep 3B2 [1]): Active | inhibition [2]: Dose-Dependent Effect | Activity (SNU-475 [3]): Active | Activity (SNU-449 [4]): 32.14% | Activity (Mahlavu [5]): Active | Activity (HepG2 [6]): Active | Activity (SNU-475 [7]): Active | inhibition [8]: Active | inhibition [9]: Active | inhibition [10]: Dose-Dependent Effect | inhibition [11]: Dose-Dependent Effect | Activity (Mahlavu [12]): Dose-Dependent Effect | Activity (Mahlavu [13]): 0% | Activity (Mahlavu [14]): Active | inhibition [15]: Dose-Dependent Effect | Activity (Hep 3B2 [16]): Dose-Dependent Effect | Activity (Hep 3B2 [17]): Active | Activity (SNU-475 [18]): Dose-Dependent Effect | Activity (SNU-449 [19]): Active | Activity (SNU-449 [20]): Active | IC50 (HepG2 [21]): 1350 nM | Activity (Mahlavu [22]): Active | Activity (Hep 3B2 [23]): Active | Activity (SNU-475 [24]): Active | inhibition [25]: Dose-Dependent Effect | Activity (Mahlavu [26]): Active | inhibition [27]: Dose-Dependent Effect | inhibition [28]: Dose-Dependent Effect | inhibition [29]: Dose-Dependent Effect | Activity (Hep 3B2 [30]): Active | inhibition [31]: Dose-Dependent Effect | inhibition [32]: Active | Activity (Mahlavu [33]): 11.97% | inhibition [34]: Dose-Dependent Effect | IC50 (Mahlavu [35]): 550 nM | Activity (Hep 3B2 [36]): Active
